biological target: T1, Bone morphogenetic protein 1 (Homo sapiens, UniProt P13497); experiment: Inhibitory activity against procollagen C-proteinase (PCP).
T1 sequence (P13497 whole entry): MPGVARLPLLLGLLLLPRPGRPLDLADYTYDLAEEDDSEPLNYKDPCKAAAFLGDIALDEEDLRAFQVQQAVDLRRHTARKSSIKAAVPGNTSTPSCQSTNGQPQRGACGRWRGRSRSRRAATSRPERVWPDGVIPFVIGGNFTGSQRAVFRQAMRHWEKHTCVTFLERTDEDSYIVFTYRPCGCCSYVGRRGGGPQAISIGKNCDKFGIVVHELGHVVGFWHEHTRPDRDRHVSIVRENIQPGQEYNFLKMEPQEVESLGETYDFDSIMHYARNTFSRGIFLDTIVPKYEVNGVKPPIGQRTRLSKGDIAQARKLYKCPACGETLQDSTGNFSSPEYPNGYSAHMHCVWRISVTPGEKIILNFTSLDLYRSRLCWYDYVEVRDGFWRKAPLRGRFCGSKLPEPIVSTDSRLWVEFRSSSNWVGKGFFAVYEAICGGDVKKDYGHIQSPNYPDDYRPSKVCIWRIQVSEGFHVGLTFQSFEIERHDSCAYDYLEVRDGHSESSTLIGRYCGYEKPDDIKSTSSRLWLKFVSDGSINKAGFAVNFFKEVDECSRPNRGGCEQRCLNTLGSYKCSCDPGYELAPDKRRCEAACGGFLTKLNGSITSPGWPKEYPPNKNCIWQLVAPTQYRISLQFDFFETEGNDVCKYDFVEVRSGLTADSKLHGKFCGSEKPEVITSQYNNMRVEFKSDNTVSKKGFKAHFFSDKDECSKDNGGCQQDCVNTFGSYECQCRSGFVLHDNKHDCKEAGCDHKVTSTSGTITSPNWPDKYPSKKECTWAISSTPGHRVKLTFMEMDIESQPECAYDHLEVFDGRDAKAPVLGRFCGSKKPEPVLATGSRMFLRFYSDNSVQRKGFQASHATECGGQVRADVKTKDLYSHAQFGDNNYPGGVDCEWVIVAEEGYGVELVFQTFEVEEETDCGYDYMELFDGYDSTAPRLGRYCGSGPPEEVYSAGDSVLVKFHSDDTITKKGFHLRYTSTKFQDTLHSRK

| IC50 | SMILES |
| --- | --- |
| 260 nM | COc1ccc(S(=O)(=O)N(Cc2cccc(Br)c2)[C@H](Cc2cccs2)C(=O)NO)cc1 |
| 470 nM | COc1ccc(S(=O)(=O)N(Cc2ccc3c(c2)OCO3)[C@H](Cc2ccco2)C(=O)O)cc1 |
| 120 nM | COc1ccc(S(=O)(=O)N(Cc2cc(C)on2)[C@H](Cc2cccs2)C(=O)O)cc1 |
| 210 nM | COC(=O)c1ccc(CN([C@H](Cc2cccs2)C(=O)O)S(=O)(=O)c2ccc(OC)cc2)cc1 |
